Eleven compounds from ChEMBL document CHEMBL5226388, “Terpenoids from the Sponge Sarcotragus sp. Collected in the South China Sea” (J Nat Prod, 2023) can be followed below.

In data set [1] the test system is K562. Nature of the data set: Cytotoxicity against human K562 cells assessed as reduction in cell growth by MTT assay. The format is functional, cell-based. In general terms: Tetrazolium assays rely on reduction of a dye to a coloured formazan, in cell work by metabolically active cells.
The test system of data set [2] is MDA-MB-231. Nature of the data set: Cytotoxicity against human MDA-MB-231 cells assessed as reduction in cell growth by MTT assay. The format is functional, cell-based.
Data set [3] deals with H69AR. Nature of the data set: Cytotoxicity against human NCI-H69AR cells assessed as reduction in cell growth by MTT assay. The class given is functional, cell-based.
Data set [4] in a line: Cytotoxicity against human L02 cells assessed as reduction in cell growth by MTT assay. The class given is toxicity, cell-based.
The test system of data set [5] is ASPC1. Nature of the data set: Cytotoxicity against human ASPC1 cells assessed as reduction in cell growth by MTT assay. The format is functional, cell-based.

SMILES strings stand for the structures. Where only a bound is given, the exact number is not on record here.

For `CC(=O)O[C@@H]1OC(=O)C=C1/C=C/[C@]1(C)C2=CC[C@H]3C(C)(C)CCC[C@]3(C)[C@H]2CC[C@@H]1C`, the IC50 (commonly the concentration at which inhibition is half-maximal) in data set [1] came to 4.38 µM; in data set [2], 23.2 µM; in data set [3], 16.3 µM; in data set [4], 7.21 µM.
For `CO[C@H](C[C@]1(C)C2=CC[C@H]3C(C)(C)CCC[C@]3(C)[C@H]2CC[C@@H]1C)C1=CC(=O)O[C@H]1O`, the IC50 in data set [1] was 7.95 µM; in data set [5] it was 4.71 µM; in data set [2] it was 16 µM; in data set [3], 5.67 µM; in data set [4], 4.62 µM.
For `C[C@H]1CC[C@H]2C(=CC[C@H]3C(C)(C)CCC[C@]23C)[C@@]1(C)/C=C/C1=CC(=O)OC1O` (stereo partly drawn), in that order: 11.6 µM, 22.4 µM, over 30 µM, 25.7 µM and 13.5 µM.
For `C[C@@H]1CC[C@@H]2C(=CC[C@@H]3C(C)(C)CCC[C@@]23C)[C@]1(C)C[C@H](O)C1=CC(=O)OC1`, in that order: over 30 µM, over 30 µM, over 30 µM, over 30 µM and over 30 µM.
For `C=C(C)CCCC1=CCC[C@H](C)[C@]1(C)CCC1=CC(=O)OC1O` (stereo partly drawn), in that order: 15.1 µM, over 30 µM, over 30 µM, 21.1 µM and 13.5 µM.
Regarding `CC(=O)O[C@H]1OC(=O)C=C1/C=C/[C@]1(C)C2=CC[C@H]3C(C)(C)CCC[C@]3(C)[C@H]2CC[C@@H]1C`, the IC50 in data set [1] turned out to be 2.91 µM; in data set [2] it was 29 µM; in data set [3], 14.9 µM; in data set [4] it was 6.8 µM.
Take `CC(C)=CCC[C@@]1(C)CCC=C2[C@@H]1CC[C@H](C)[C@]2(C)CCC1=CC(=O)OC1`: the half-inhibitory concentration (IC50) in data set [1], in data set [5], in data set [2], in data set [3] and in data set [4] was over 30 µM each time.
As for `CC1=CCC[C@@H](C)[C@@]1(C)CC/C(C)=C/CCC1=CC(=O)OC1`, the IC50 in data set [1], in data set [5], in data set [2], in data set [3] and in data set [4] was over 30 µM in each case.
For the compound `CC(=O)O[C@@H]1C[C@@H]2[C@@]3(C)CCCC(C)(C)[C@@H]3CC[C@@]2(C)[C@@H]2C[C@@H](O)C3=C([C@H](O)OC3=O)[C@@]12C`, the IC50 in data set [1] is 7.19 µM; in data set [5], 17.9 µM; in data set [2], over 30 µM; in data set [3], 27.5 µM; in data set [4], 24.1 µM.
For `C[C@@H]1CC[C@@H]2C(=CC[C@H]3C(C)(C)CCC[C@@]23C)[C@]1(C)C[C@@H](O)C1=CC(=O)OC1`, in that order: 12.6 µM, over 30 µM, over 30 µM, over 30 µM and 11.6 µM.
For `COc1cccc2c1C(=O)c1c(O)c3c(c(O)c1C2=O)C[C@@](O)(C(=O)CO)C[C@@H]3O[C@H]1C[C@H](N)[C@H](O)[C@H](C)O1` [DOXORUBICIN], in that order: under 1 µM, under 1 µM, under 1 µM, under 1 µM and under 1 µM.
